Measurements reported in US7560491B2, “Z-stilbenes derivatives and the pharmaceutical composition thereof” (Taipei Medical University, priority 2006, dated 2009).

COc1ccc(/C=C\c2cc(OC)cc(OC)c2N)cc1 gave a melting point of 83.2 to 86.3 °C.
In the case of COc1ccc(/C=C\c2cc(OC)c(OC)cc2N)cc1, the melting point is reported as 62.7 to 63.8 °C.
In the case of COc1ccc(/C=C\c2cc(OC)c(OC)c(OC)c2N)cc1N, the melting point is reported as 97.3 to 98.1 °C.
